Assays:
[1] = test system: IL-13 induced STAT6 phosphorylation in HT-29 human colorectal adenocarcinoma cells; experiment: Cellular JAK potency assay: inhibition of IL-13 induced STAT6 phosphorylation; assay type: cell-based; conditions: IL-13 induced STAT6 phosphorylation, HT-29 cells; for IC50: Homo sapiens, read-out: HT-29 (pIC50) (converted)
Description: The potency of test compounds for inhibition of the JAK-dependent cytokine interleuken-13 (IL-13) was assessed by measuring IL-13 (IL-13, R&D Systems) induced STAT6 phosphorylation in HT-29 human colorectal adenocarcinoma cells (ATCC).
The anti-STAT6 antibody (Cell Signaling Technologies) was conjugated to AlphaScreen acceptor beads (Perkin Elmer), while the anti-pSTAT6 (pTyr641) antibody (Cell Signaling Technologies) was biotinylated using EZ-Link Sulfo-NHS-Biotin (Thermo Scientific).
HT-29 cells were grown at 37° C. in a 5% CO2 humidified incubator in McCoy's 5a Modified medium (ATCC) supplemented with 10% FBS (Hyclone), 100 U/mL penicillin, 100 μg/mL streptomycin (Life Technologies), and 2 mM GlutaMAX (Life Technologies). On day 1 of the assay, cells were seeded at a 7,500 cells/well density in white poly-D-lysine-coated 384-well plates (Corning) with 25 μL medium, and were allowed to adhere overnight in the incubator. On day 2 of the assay, the medium was removed and replaced with 12 μL of assay buffer (Hank's Balanced Salt Solution/HBSS, 25 mM HEPES, and 1 mg/ml bovine serum albumin/BSA) containing dose-responses of test compounds. Compounds were serially diluted in DMSO and then diluted another 1000-fold in media to bring the final DMSO concentration to 0.1%. Cells were incubated with test compounds at 37° C. for 1 h, and followed by the addition of 12 μL of pre-warmed IL-13 (12 ng/ml in assay buffer) for stimulation. After incubating at 37° C. for 30 min, the assay buffer (containing compound and IL-13) was removed, and 10 μL of cell lysis buffer (25 mM HEPES, 0.1% SDS, 1% NP-40, 5 mM MgCl2, 1.3 mM EDTA, 1 mM EGTA, and supplement with Complete Ultra mini protease inhibitors and PhosSTOP from Roche Diagnostics). The plates were shaken at ambient temperature for 30 min before the addition of detection reagents. A mixture of biotin-anti-pSTAT6 and anti-STAT6 conjugated acceptor beads was added first and incubated at ambient temperature for 2 h, followed by the addition of streptavidin conjugated donor beads (Perkin Elmer). After a minimum of 2 h incubation, the assay plates were read on the EnVision plate reader.
Results were expressed as the negative logarithm of the IC50 value, pIC50.

JAK1 = JAK1 (Homo sapiens (Human), UniProt P23458); experiment: LanthaScreen JAK biochemical assay, JAK1; conditions: for Ki: read-out: JAK 1 (pKi) (converted)
Chain of JAK1 (P23458 whole entry): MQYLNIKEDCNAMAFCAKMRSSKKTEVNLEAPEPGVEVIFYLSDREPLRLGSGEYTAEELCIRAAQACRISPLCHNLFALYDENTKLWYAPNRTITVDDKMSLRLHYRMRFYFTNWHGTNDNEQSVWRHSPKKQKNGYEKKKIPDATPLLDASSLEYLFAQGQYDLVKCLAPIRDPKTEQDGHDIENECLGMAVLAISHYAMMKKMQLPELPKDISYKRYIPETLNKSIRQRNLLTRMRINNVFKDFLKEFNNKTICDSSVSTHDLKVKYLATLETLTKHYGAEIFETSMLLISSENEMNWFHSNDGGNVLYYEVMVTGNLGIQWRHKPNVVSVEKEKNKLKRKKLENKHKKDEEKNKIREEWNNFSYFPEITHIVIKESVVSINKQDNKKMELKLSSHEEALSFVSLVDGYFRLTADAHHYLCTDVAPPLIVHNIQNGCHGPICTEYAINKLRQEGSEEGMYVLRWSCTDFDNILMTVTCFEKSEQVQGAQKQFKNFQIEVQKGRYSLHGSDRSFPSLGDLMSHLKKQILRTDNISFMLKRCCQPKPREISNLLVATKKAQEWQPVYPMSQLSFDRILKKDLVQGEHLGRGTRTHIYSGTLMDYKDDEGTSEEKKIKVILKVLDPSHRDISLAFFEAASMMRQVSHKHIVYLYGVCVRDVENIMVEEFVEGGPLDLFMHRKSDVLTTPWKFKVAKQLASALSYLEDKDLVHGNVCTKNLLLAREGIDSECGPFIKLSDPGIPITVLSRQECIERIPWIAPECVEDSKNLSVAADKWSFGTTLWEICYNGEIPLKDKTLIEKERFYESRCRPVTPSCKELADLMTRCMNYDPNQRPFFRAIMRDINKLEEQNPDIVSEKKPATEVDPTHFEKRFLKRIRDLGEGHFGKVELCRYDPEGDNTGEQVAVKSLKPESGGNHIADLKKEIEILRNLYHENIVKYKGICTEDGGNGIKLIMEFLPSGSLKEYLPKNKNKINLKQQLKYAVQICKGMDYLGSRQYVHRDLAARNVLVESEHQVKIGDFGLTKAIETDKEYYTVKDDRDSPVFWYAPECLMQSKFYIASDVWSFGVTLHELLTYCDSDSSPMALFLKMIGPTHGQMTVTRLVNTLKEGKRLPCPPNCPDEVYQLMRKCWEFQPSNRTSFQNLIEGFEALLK
Description: A panel of four LanthaScreen JAK biochemical assays (JAK1, 2, 3 and Tyk2) were carried in a common kinase reaction buffer (50 mM HEPES, pH 7.5, 0.01% Brij-35, 10 mM MgCl2, and 1 mM EGTA). Recombinant GST-tagged JAK enzymes and a GFP-tagged STAT1 peptide substrate were obtained from Life Technologies.

| SMILES | IC50 [1] | Ki (JAK1) | HT-29 (pIC50) [1] | JAK 1 (pKi) (JAK1) |
| --- | --- | --- | --- | --- |
| COc1cc(Nc2cc(CO)[nH]n2)nc(N[C@@H]2C[C@H]3CC[C@@H](C2)N3S(=O)(=O)N2CCC2)n1 [Example 1-1] | 31.6 to 200 nM | 1 to 10 nM | – | – |
| COc1cc(Nc2cc(CO)[nH]n2)nc(N[C@@H]2C[C@H]3CC[C@@H](C2)N3S(=O)(=O)N2CC(C#N)C2)n1 [Example 1-2] | 200 to 1000 nM | 0.1 to 1 nM | – | – |
| COc1cc(Nc2cc(CO)[nH]n2)nc(N[C@@H]2C[C@H]3CC[C@@H](C2)N3S(=O)(=O)c2cccnc2)n1 [Example 1-3] | 200 to 1000 nM | 1 to 10 nM | – | – |
| COc1cc(Nc2cc(CO)[nH]n2)nc(N[C@@H]2C[C@H]3CCC[C@@H](C2)N3S(=O)(=O)N2CCC2)n1 [Example 1-5, (3-((2-(((1R,3s,5S)-9-(azetidin-1-ylsulfonyl)-9-azabicyclo[3.3.1]nonan-3-yl)amino)-6-methoxypyrimidin-4-yl)amino)-1H-pyrazol-5-yl)methanol] | – | – | B (B represents a pIC50 value between 6.7 and 7.5 (IC50 between 200 nM and 32 nM)) | B (B represents a pKi value between 9 and 10 (Ki between 1 nM and 0.1 nM)) |
| COc1cc(Nc2cc(CO)[nH]n2)nc(N[C@@H]2C[C@H]3CCC[C@@H](C2)N3S(=O)(=O)N2CC(C#N)C2)n1 [Example 1-6, 1-(((1R,3s,5S)-3-((4-((5-(hydroxymethyl)-1H-pyrazol-3-yl)amino)-6-methoxypyrimidin-2-yl)amino)-9-azabicyclo[3.3.1]nonan-9-yl)sulfonyl)azetidine-3-carbonitrile] | – | – | B (B represents a pIC50 value between 6.7 and 7.5 (IC50 between 200 nM and 32 nM)) | A (A represents a pKi value≥10 (Ki≤0.1 nM)) |
| COc1cc(Nc2cc(CO)[nH]n2)nc(N[C@@H]2C[C@H]3CCC[C@@H](C2)N3S(=O)(=O)c2ccccc2)n1 [Example 1-8, (3-((6-methoxy-2-(((1R,3s,5S)-9-(phenylsulfonyl)-9-azabicyclo[3.3.1]nonan-3-yl)amino)pyrimidin-4-yl)amino)-1H-pyrazol-5-yl)methanol] | – | – | A (A represents a pIC50 value≥7.5 (IC50≤32 nM)) | A (A represents a pKi value≥10 (Ki≤0.1 nM)) |
| CCS(=O)(=O)N1[C@@H]2CCC[C@H]1C[C@H](Nc1nc(Nc3cc(CO)[nH]n3)cc(OC)n1)C2 [Example 1-9, (3-((2-(((1R,3s,5S)-9-(ethylsulfonyl)-9-azabicyclo[3.3.1]nonan-3-yl)amino)-6-methoxypyrimidin-4-yl)amino)-1H-pyrazol-5-yl)methanol] | – | – | B (B represents a pIC50 value between 6.7 and 7.5 (IC50 between 200 nM and 32 nM)) | B (B represents a pKi value between 9 and 10 (Ki between 1 nM and 0.1 nM)) |
| COc1cc(Nc2cc(CO)[nH]n2)nc(N[C@@H]2C[C@H]3CCC[C@@H](C2)N3S(=O)(=O)c2cccnc2)n1 [Example 1-11, (3-((6-methoxy-2-(((1R,3s,5S)-9-(pyridin-3-ylsulfonyl)-9-azabicyclo[3.3.1]nonan-3-yl)amino)pyrimidin-4-yl)amino)-1H-pyrazol-5-yl)methanol] | – | – | B (B represents a pIC50 value between 6.7 and 7.5 (IC50 between 200 nM and 32 nM)) | B (B represents a pKi value between 9 and 10 (Ki between 1 nM and 0.1 nM)) |
| COc1cc(Nc2cc(CO)[nH]n2)nc(N(C)[C@@H]2C[C@H]3CCC[C@@H](C2)N3S(=O)(=O)c2cncc(F)c2)n1 [Example 1-19, (3-((2-(((1R,3s,5S)-9-((5-fluoropyridin-3-yl)sulfonyl)-9-azabicyclo[3.3.1]nonan-3-yl)(methyl)amino)-6-methoxypyrimidin-4-yl)amino)-1H-pyrazol-5-yl)methanol] | – | – | A (A represents a pIC50 value≥7.5 (IC50≤32 nM)) | B (B represents a pKi value between 9 and 10 (Ki between 1 nM and 0.1 nM)) |
| COc1cc(Nc2cc(CO)[nH]n2)nc(N(C)C2C[C@H]3CCC[C@@H](C2)N3C(=O)C(F)F)n1 (stereo partly drawn) [Example 9, 2,2-difluoro-1-((1R,3s,5S)-3-((4-((5-(hydroxymethyl)-1H-pyrazol-3-yl)amino)-6-methoxypyrimidin-2-yl)(methyl)amino)-9-azabicyclo[3.3.1]nonan-9-yl)ethan-1-one] | 31.6 to 200 nM | – | – | – |

Source: patent US10028960B2, “Pyrimidine compounds as JAK kinase inhibitors” (THERAVANCE BIOPHARMA R&D IP, LLC, priority 2016, dated 2018)
